Earlier results on 59 molecules are cited in the CATMoS acute toxicity set (Mansouri et al. 2021).

SMILES strings stand for the structures. “And” between values parts separate entries of the source, which are not always exact repeats. Equal values may be shown once.

A short description of the data set: rat acute oral toxicity. The conditions noted are these: in vivo.
`CCOP(=S)(CCl)Sc1ccc(C)cc1` (centres undefined): the LD50 was 336 mg/kg.
Take `O=c1[nH]c(=O)c2ccccc2o1`: the LD50 was 750 mg/kg.
On to `CCCN(CCC)C(=O)C(CCC(=O)OCCCOC(=O)Cc1c(C)n(C(=O)c2ccc(Cl)cc2)c2ccc(OC)cc12)NC(=O)c1ccccc1` (centres undefined), for which the LD50 is 605 mg/kg.
On to `CCOC(=O)C(C)O` (centres undefined), for which the LD50 was 8200 mg/kg.
Take `ClC1=C(Cl)C2(Cl)C(C(Cl)Cl)CC1(Cl)C2(Cl)Cl` (centres undefined): the LD50 was 1600 mg/kg.
For the molecule `CC(C)OP(=S)(OC(C)C)SCn1nc(Cl)ccc1=O`, the LD50 is 190 mg/kg.
As for `O=C(O)Cc1ccccc1Nc1c(Cl)cc(Cl)c2ccccc12`, the LD50 was 56.2 mg/kg.
`CC(C)CCOC(=O)c1ccccc1O`: the LD50 is 3300 mg/kg.
As for `CCOc1ccc(Cc2nc(C)cc3cc(OC)c(OC)cc23)cc1OC`, the LD50 was 1960 mg/kg and 2070 mg/kg.
Regarding `CC(C1=C(CCN(C)C)Cc2ccccc21)c1ccccn1` (centres undefined), the LD50 was 618 mg/kg.
For the molecule `CC(=O)OC1CCCCC1C(C)(C)C` (centres undefined), the LD50 is 4600 mg/kg.
In the case of `C1N2CN3CN1CN(C2)C3`, the LD50 was 9200 mg/kg.
As for `Oc1c(Cl)cc2[nH]c(C(F)(F)F)nc2c1Cl`, the LD50 was 58 mg/kg.
As for `COC(=O)CC(SP(=S)(OC)OC)C(=O)OC` (centres undefined), the median lethal dose (LD50) was 1020 mg/kg.
Consider `C1=CCCCC1`, for which the LD50 is 1950 mg/kg.
On to `CCOP(=S)(OCC)SC(C(=O)OCCF)c1ccccc1` (centres undefined), for which the LD50 was 5 mg/kg.
For the molecule `O=C1CN=C(c2ccccc2F)c2cc(Cl)ccc2N1CC1CC1`, the LD50 is 10100 mg/kg.
Take `Cc1cc2[nH]c(C(F)(F)F)nc2cc1Br`: the LD50 was 77 mg/kg.
As to `CC(O)CN(CC(C)O)c1nc(Nc2ccc(C=Cc3ccc(Nc4nc(Nc5cc(S(=O)(=O)O)ccc5S(=O)(=O)O)nc(N(CC(C)O)CC(C)O)n4)cc3S(=O)(=O)O)c(S(=O)(=O)O)c2)nc(Nc2cc(S(=O)(=O)O)ccc2S(=O)(=O)O)n1` (centres undefined), the LD50 was 12100 mg/kg.
Regarding `CC(C)NC(=O)OCC(O)C1COc2ccccc2O1` (centres undefined), the LD50 was 1500 mg/kg.
On to `C=CCn1c(=O)c2[nH]c(C)nc2n(CC(C)C)c1=O`, for which the LD50 was 17 mg/kg.
On to `CCOC(CN1CCN(CC(C)C(=O)c2ccccc2)CC1)c1ccccc1` (centres undefined), for which the LD50 was 763 mg/kg.
Consider `CC=CC(=O)O`, for which the LD50 was 1000 mg/kg.
For `CNC(=O)ON=C1C(Cl)C2CC(C#N)C1C2` (centres undefined), the LD50 was 24 mg/kg.
For the molecule `CN(Sc1ccc(F)cc1)C(=O)Oc1cccc2c1OC(C)(C)C2`, the LD50 is 25 mg/kg.
As for `CCOC(=O)C=Cc1ccccc1`, the LD50 was 4000 mg/kg.
As for `Cc1ccc2c(c1)C1CN(CCCC(=O)c3ccc(F)cc3)CCC1N2` (centres undefined), the LD50 is 812 mg/kg.
As to `CCCCCCC(=O)OCCOCCOCCOCCOC(=O)CCCCCC`, the LD50 was 25000 mg/kg.
For `CN(C)P(=O)(OC=C(Cl)Cl)c1ccc(Cl)cc1` (centres undefined), the LD50 was 500 mg/kg.
`CCC=CC=CC=O`: the LD50 was 1150 mg/kg.
On to `CC12CCC(CC1=O)C2(C)C=O` (centres undefined), for which the 50% lethal dose (LD50) was 3100 mg/kg.
Consider `CC[C@@H](COC(=O)c1cc(OC)c(OC)c(OC)c1)N(C)CCN(C)[C@@H](CC)COC(=O)c1cc(OC)c(OC)c(OC)c1`, for which the median lethal dose (LD50) is 1500 mg/kg.
Consider `CC(=O)SCCCCCCSC(C)=O`, for which the LD50 was 504 mg/kg.
`COP(=S)(NC(C)C)Oc1ccc(Cl)cc1Cl` (centres undefined): the LD50 is 270 mg/kg.
As for `CC(=O)CCC1C(=O)N(c2ccccc2)N(c2ccccc2)C1=O`, the median lethal dose (LD50) is 720 mg/kg.
As for `CC(C)C1=Nc2ccccc2C1=C(N)c1cccnc1`, the LD50 is 350 mg/kg.
With `CC(C)c1noc2nc(C(C)(C)C)ncc12`, the LD50 is 15400 mg/kg.
Regarding `OC1(c2ccc(Cl)cc2)CCNCC1`, the LD50 is 465 mg/kg.
In the case of `C[N+](C)(C)C`, the LD50 was 77 mg/kg and 50 mg/kg.
`CCOC(=O)c1ccccc1S(=O)(=O)NC(=O)Nc1nc(Cl)cc(OC)n1`: the LD50 is 4100 mg/kg.
Turning to `CC(C)=CC(=O)Nc1ccc(O)cc1`, the LD50 is 1950 mg/kg.
`C=COCC(CC)CCCC` (centres undefined): the LD50 is 1350 mg/kg.
In the case of `O=C1C(O)N=C(c2ccccc2F)c2cc(Cl)ccc2N1CCO` (centres undefined), the LD50 is 2550 mg/kg.
As for `Cc1oc(C)c(C(=O)Nc2ccccc2)c1C`, the LD50 was 1470 mg/kg.
On to `OCC(Br)C(Br)CO` (centres undefined), for which the LD50 was 2460 mg/kg.
For the molecule `Fc1ccc(C(c2ccc(F)cc2)N2CCN(C/C=C/c3ccccc3)CC2)cc1`, the LD50 is 503 mg/kg.
As to `NC(=S)NNCNNC(N)=S`, the LD50 is 6.35 mg/kg.
Regarding `CCN(CC)CCC(=O)N1c2ccccc2Sc2ccc(C(F)(F)F)cc21`, the LD50 was 860 mg/kg.
Regarding `CCCCCCCCCCCC(=O)O`, the LD50 is 12000 mg/kg.
As for `Nc1cccc2cc(S(=O)(=O)O)ccc12`, the LD50 is 14200 mg/kg.
With `CC1(C)OCC(COC(=O)Cc2ccc3c(c2)OCc2ccccc2C3=O)O1` (centres undefined), the LD50 is 92 mg/kg.
For the molecule `COP(=S)(OC)Oc1ccc(Cl)c([N+](=O)[O-])c1`, the 50% lethal dose (LD50) is 500 mg/kg.
For the molecule `CCCCCC(C)=O`, the LD50 is 1670 mg/kg.
Regarding `CC(=O)N(CC(C)C(=O)O)c1c(I)cc(I)c(N)c1I` (centres undefined), the 50% lethal dose (LD50) is 7100 mg/kg.
Consider `CN1CCC(=C2c3ccccc3CCc3sccc32)CC1`, for which the median lethal dose (LD50) was 410 mg/kg.
Consider `COC(=O)c1ccccc1OC`, for which the LD50 is 3800 mg/kg.
As to `CC1(C)Cc2cccc(OC(=O)NCSc3ccc(Br)cc3)c2O1`, the LD50 is 25 mg/kg.
Take `Fc1ccc(SCc2ccc(Cl)cc2)cc1`: the LD50 is 3000 mg/kg.
Consider `O=C(O)CCC(CC(=O)O)(C(=O)O)P(=O)(O)O` (centres undefined), for which the LD50 was 4000 mg/kg.
